From ChEMBL document CHEMBL1129832, “Rational design, synthesis, and serine protease inhibitory activity of a novel P1-argininal derivative featuring a conformationally constrained P2P3 bicyclic lactam moiety” (Bioorg Med Chem Lett, 1997)

Tests used:
[1] = target: Prothrombin (Homo sapiens, UniProt P00734)
[2] = target: Tissue-type plasminogen activator (Homo sapiens, UniProt P00750); assay: In vitro inhibitory concentration required to inhibit tissue plasminogen activator cleavage of the chromogenic substrate by 50%; Inactive
Tissue-type plasminogen activator, sequence (P00750 whole entry): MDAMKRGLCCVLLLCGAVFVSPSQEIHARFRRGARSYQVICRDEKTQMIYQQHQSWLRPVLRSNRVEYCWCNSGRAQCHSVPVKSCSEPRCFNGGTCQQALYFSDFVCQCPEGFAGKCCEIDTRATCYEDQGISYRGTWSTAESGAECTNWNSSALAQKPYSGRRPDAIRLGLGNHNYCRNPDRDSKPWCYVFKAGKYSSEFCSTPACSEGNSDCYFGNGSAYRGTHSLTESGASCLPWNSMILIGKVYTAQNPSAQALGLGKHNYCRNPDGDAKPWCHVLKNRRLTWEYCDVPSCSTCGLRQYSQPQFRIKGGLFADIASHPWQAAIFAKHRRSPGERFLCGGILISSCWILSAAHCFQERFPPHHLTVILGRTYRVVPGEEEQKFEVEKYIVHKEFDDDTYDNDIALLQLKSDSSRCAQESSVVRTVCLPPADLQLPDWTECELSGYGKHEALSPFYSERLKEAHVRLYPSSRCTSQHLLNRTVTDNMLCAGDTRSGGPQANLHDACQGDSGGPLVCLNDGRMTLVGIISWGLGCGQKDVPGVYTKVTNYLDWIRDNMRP

[3] = target: T1, Plasminogen (Homo sapiens, UniProt P00747)
T1 sequence (P00747 97-580 limits assumed): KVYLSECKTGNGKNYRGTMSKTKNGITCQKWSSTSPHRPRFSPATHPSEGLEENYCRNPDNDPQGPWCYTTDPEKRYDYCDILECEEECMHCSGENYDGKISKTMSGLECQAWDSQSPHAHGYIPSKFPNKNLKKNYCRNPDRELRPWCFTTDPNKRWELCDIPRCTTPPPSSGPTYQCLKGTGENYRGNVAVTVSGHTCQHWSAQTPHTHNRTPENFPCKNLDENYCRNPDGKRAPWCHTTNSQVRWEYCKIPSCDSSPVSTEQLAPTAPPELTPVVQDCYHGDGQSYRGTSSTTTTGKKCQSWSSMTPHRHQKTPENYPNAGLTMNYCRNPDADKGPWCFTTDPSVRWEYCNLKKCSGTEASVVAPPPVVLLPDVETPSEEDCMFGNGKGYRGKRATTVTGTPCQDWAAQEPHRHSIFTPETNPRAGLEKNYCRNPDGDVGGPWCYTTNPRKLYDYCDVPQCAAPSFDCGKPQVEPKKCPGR
T1 sequence (P00747 581-810 limits assumed): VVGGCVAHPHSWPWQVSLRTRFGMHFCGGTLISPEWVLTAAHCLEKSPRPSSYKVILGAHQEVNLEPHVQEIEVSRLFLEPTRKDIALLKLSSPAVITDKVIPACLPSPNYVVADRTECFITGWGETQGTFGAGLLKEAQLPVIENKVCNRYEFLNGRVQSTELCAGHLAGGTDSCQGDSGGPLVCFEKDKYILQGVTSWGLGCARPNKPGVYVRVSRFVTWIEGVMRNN

[4] = target: Serine protease 1 (Homo sapiens, UniProt P07477)
Serine protease 1, sequence (P07477 whole entry): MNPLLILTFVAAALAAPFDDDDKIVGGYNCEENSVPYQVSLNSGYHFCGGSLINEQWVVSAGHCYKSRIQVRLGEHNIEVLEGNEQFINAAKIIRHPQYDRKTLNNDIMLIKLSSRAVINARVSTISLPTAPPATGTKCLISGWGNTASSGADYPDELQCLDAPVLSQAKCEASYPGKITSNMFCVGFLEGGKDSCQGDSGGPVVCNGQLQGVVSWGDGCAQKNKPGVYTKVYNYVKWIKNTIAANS

[5] = target: Coagulation factor X (Homo sapiens, UniProt P00742)
Coagulation factor X, sequence (P00742 41-179 limits assumed): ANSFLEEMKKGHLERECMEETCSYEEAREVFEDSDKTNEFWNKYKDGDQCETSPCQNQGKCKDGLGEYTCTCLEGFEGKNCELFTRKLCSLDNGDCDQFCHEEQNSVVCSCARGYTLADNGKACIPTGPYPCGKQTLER
Coagulation factor X, sequence (P00742 235-488 limits assumed): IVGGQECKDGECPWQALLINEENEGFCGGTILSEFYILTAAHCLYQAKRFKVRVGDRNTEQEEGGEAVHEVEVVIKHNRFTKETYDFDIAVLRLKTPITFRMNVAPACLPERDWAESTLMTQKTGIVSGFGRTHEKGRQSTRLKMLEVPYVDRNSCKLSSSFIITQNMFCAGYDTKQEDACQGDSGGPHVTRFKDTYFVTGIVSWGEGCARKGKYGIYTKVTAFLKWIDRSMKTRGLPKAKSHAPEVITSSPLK
Description: In vitro inhibitory concentration required to inhibit Coagulation factor X by 50%

[6] = target: T1, Plasminogen; remark: listed apart in the source

With `CCCC(CCC)C(=O)N[C@@H](CC(=O)OC)C(=O)N1CCCC1C(=O)N[C@H]1CCCN(C(=N)N)C1O` (stereo partly specified) the IC50 [1] was 1.1 nM, the IC50 [2] was “Not Active” and the IC50 [3] was 315 nM. It also gave an IC50 [4] of 1.36 nM.
`N=C(N)N1CCC[C@H](NC(=O)C2CS[C@H]3CC[C@H](NS(=O)(=O)Cc4ccccc4)C(=O)N23)C1O` (stereo partly specified) was tested, and the IC50 [1] was 16.4 nM, the IC50 [2] was “Not Active” and the IC50 [5] was > 2500 nM. It also gave an IC50 [3] of 923 nM and an IC50 [4] of 11.6 nM.
`COC(=O)C[C@H](NS(=O)(=O)Cc1ccccc1)C(=O)N1CCCC1C(=O)N[C@H]1CCCN(C(=N)N)C1O` (stereo partly specified) gave an IC50 [1] of 5.01 nM, an IC50 [5] of 29.7 nM and an IC50 [3] of 14.8 nM. It also gave an IC50 [4] of 2.58 nM.
With `N=C(N)N1CCC[C@H](NC(=O)CN2CCC[C@H](NS(=O)(=O)Cc3ccccc3)C2=O)C1O` (stereo partly specified) the IC50 [6] was “Not Active”, the IC50 [2] was “Not Active” and the IC50 [5] was > 2500 nM.
